This is an account of results in patent US5830885A, “Antiproliferative vitamin D3 hybrids” (The Johns Hopkins University, priority 1996, dated 1998).

For series [1], the system named is RWLeu-4 human CML cell line. In words: Proliferation of RWLeu-4 human chronic myelogenous leukemic cells. The class given is cell-based. As to conditions: even at 50 nM; FIG. 5. From the text: MCW-II5-y-A is compound YA and MCW-II5-y-B is compound YB.
Another series has as its system keratinocyte. Put plainly: Dose-response effects on keratinocyte proliferation (FIGS. 3, 4, 9, 10). Type of series: cell-based. As to conditions: cell numbers at 0 and 96 hours. How it is done: N0 represents the number of cells at zero hours and N1 represents the number of cells at 96 hours.
Series [2] can be described thus: Solubility in organic solvents. The class given is physicochemical. As to conditions: methylene chloride, chloroform, methanol; for YA/YB also EtOAc, acetone.
Series [3] relates to U 937 cancer cells. In words: Viability of U 937 cancer cells (Table 5). The class given is cell-based. As to conditions: Homo sapiens.
The test system of the next series is calcium channels. In words: Calcium channel opening assay. The class given is cell-based.
Series [4] has as its system U 937 cancer cells. In words: Induction of cell differentiation in U 937 cancer cells (Table 5). Type of series: cell-based, human.
For another series, the system named is cell differentiation. In words: Induction of differentiation (ratings of Table 2). Type of series: cell-based. As to conditions: for differentiation inducing activity: compared with calcitriol.
Series [5] concerns cell proliferation. Put plainly: Inhibition of proliferation (ratings of Table 2). As to conditions: Table 2 rating. The class given is cell-based.
In another series the target is T1, calf thymus VDR (Bos taurus, UniProt Q28037).
T1 construct: from the calf thymus VDR; from tissue; host or cells: calf thymus
T1 sequence (Q28037 1-426): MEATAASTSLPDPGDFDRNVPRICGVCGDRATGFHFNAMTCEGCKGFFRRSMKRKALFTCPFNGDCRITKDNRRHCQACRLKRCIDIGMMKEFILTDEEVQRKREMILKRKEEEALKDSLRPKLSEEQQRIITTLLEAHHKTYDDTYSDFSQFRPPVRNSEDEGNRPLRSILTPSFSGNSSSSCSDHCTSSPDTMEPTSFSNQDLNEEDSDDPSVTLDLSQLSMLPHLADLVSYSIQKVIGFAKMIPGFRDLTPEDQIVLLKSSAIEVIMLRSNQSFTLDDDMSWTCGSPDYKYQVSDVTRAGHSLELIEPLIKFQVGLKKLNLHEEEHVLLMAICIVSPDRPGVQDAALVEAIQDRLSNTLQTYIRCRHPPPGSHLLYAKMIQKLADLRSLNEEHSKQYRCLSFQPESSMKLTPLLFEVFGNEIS
Put plainly: VDR binding assay, displacement of [^3 H]-1,25(OH)2 D3 from VDR. The following applies: for Amount Bound (amount that results in 50% displacement of [^3 H]-1,25(OH)2 D3 from VDR): Table 3, calf thymus VDR. How it is done:
The VDR binding assay was performed according to the procedure of Reinhardt, T. A., Horst, R. L., Orf, J. W., Hollis, B. W., J. Clin. Endocrin. Metab., 58: 91-98 (1984), the entire contents of which are hereby incorporated herein by reference.

The subject of series [6] is U 937 cancer cells. Put plainly: Inhibition of cell proliferation in U 937 cancer cells (Table 5). Type of series: cell-based, human. The following applies: for IC50: Homo sapiens, U 937 cells; for inhibiting cell proliferation (in words): U 937, YB vs 1,25(OH)2 D3, YA up to 10^-7 M.
For series [7], the system named is human breast cancer cell lines MDA 468 and SKBr 3. Put plainly: Thymidine incorporation by human breast cancer cell lines. Type of series: cell-based. The following applies: human breast cancer cells; FIGS. 6A and 6B. From the text: (§1) FIGS. 6A and 6B show a comparison of the effects of 1,25(OH)2 D3 (filled squares), YA (filled circles) and YB (filled triangles) on thymidine incorporation by human breast cancer cell lines MDA 468 and SKBr 3.

The subject of a further series is MDA 468 cells. In words: Thymidine incorporation by MDA 468 human breast cancer cells. The class given is cell-based. The following applies: FIGS. 6A and 6B.
From the text: as §1
A general note: Dividing cells build labelled thymidine or BrdU into new DNA.

Series [8] relates to cell proliferation. In words: Anti-proliferative activity (summary statements). The class given is cell-based. The following applies: compared with calcitriol or in general words.
The subject of series [9] is ornithine decarboxylase (ODC). The following applies: literature; cited from earlier work.
For series [10], the system named is ornithine decarboxylase (ODC). In words: Inhibition of TPA-induced ornithine decarboxylase (ODC) activity in PE cells. The following applies: 1 μM, 15 minutes pretreatment, p<0.001. Type of series: cell-based, murine. How it is done:
(§2) The compounds were tested for growth inhibition of murine keratinocyte cells (cell line PE) and for the inhibition of TPA-induced ornithine decarboxylase (ODC) activity.
The cell line PE was derived from a papilloma induced in female SENCAR mice by a standard skin initiation/promotion protocol (Carcinogenesis, 7:949-958 (1986), the entire contents of which are hereby incorporated by reference) and was chosen for its particular sensitivity to the induction of ornithine decarboxylase (ODC) activity by the extensively characterized tumor promoter TPA. The PE cell line culture medium used in the tests consisted of Eagle's minimal essential medium without calcium chloride supplemented with 8% chelexed fetal calf serum and 1% antibiotic-antimycotic and the addition of CaCl2 to 0.05 mM Ca^++.
100 cm^2 dishes of PE cells were treated with vitamin D3 or analogues dissolved in DMSO by direct addition into the culture medium. Fifteen minutes later, the plates were treated with 100 ng/ml TPA dissolved in ethanol. […]
Cytosolic ODC activity was determined in triplicate by measuring the release of ^14 CO2 from L-[^14 C]ornithine using an Eppendorf microvessel assay as previously described (Cancer Res., 43:2555-2559 (1983), the entire contents of which are hereby incorporated by reference).

For series [11], the system named is murine keratinocyte cells (cell line PE). In words: Growth inhibition of PE keratinocytes (MTT assay). The class given is cell-based. The following applies: calcitriol vs 1-hydroxymethyl derivatives. Here is the method:
as §2
The PE cell line culture medium used in the tests consisted of Eagle's minimal essential medium without calcium chloride supplemented with 8% chelexed fetal calf serum and 1% antibiotic-antimycotic and the addition of CaCl2 to 0.05 mM Ca^++.
PE cells were seeded at a density of 5,000 cells/well in 50 μl medium into 96-well microtiter plates. […] The plates were fed once at 48 hours, with the re addition of the vitamin D3 analogues at this time. At 24 hour intervals following the initial treatment of the cells with compounds, 0.1 mg ([…] of a 2 mg/ml solution) of MTT was added to the plates. After 4 hours, the MTT was removed and DMSO added to dissolve the blue formazan dye. Using a microtiter plate reader, the A505 was then determined and cell number calculated from blank-subtracted absorbance values.
On the technique in general: Formazan colour is commonly taken as a measure of viable cells.

The subject of series [12] is Human lymphoma cells U 937. The following applies: relative to calcitriol = 1; cited from earlier work.
For series [13], the system named is Human lymphoma cells U 937. The following applies: relative to calcitriol = 1; cited from earlier work. This is another data set of the same source.
Another series relates to HL-60 cells. The following applies: relative to 1,25D3; cited from earlier work.
The next series relates to Lewis rats. As to conditions: relative to calcitriol = 1; cited from earlier work.
[14] abbreviates: at 10^-7 M, read-out: Viability.

Broadly, the viability is a per cent measure of how many cells are alive, often set against a control. A word on the IC50: it is the concentration at which inhibition is half-maximal. A higher IC50 goes with lower potency.

“Also recorded” adds a separate entry of the source. Where two headings read alike, the source gives them in different places.

Turning to `C=C1/C(=C\C=C2/CCC[C@]3(C)[C@@H]([C@@H](C)OCCCC(O)(CC)CC)CC[C@@H]23)C[C@H](O)C[C@H]1CO` [YB, 22-oxa-1-(hydroxymethyl)-26-(hydroxydiethyl) vitamin D3], the “anti-proliferative effect on RWLeu-4 cells” value in [1] was “comparable to or slightly greater than that of calcitriol”. Besides, in the series with keratinocyte, the “effect on keratinocyte proliferation” value is given as “comparable to that of calcitriol”. Also, the “solubility in organic solvents” value in series [2] is recorded as “sparingly soluble”. Also, the viability at 0.1 µM in the series on U 937 cancer cells [3] (setting [14]) amounted to 99%. For the same compound, the “Average peak shift compared to control” value in the series on calcium channels (0.05 nM) was 3.6 ± 2.2 mV; in the series with calcium channels (0.5 nM) it was 13.2 ± 2.8 mV; in the series on calcium channels (5 nM), 16.6 ± 2.8 mV; with calcium channels (50 nM), 18.4 ± 2.1 mV. For the same compound, the “inducing cell differentiation (in words)” value with U 937 cancer cells [4] (at a concentration of 10^-8 M) is on record as “effective in inducing cell differentiation”. Also, in the series on cell differentiation (Table 2 rating), the “Induction of Differentiation (rating)” value is given as 1. Moreover, the differentiation inducing activity entry with cell differentiation was “comparable to that of calcitriol”. Also, in the series on cell proliferation [5], the “Inhibition of Proliferation (rating)” value came out at 1. Besides, the “Amount Bound (amount that results in 50% displacement of [^3 H]-1,25(OH)2 D3 from VDR)” value on calf thymus VDR stood at 29.5 ng. Besides, at calf thymus VDR (relative to 1,25(OH)2 D3), the “times less strongly bound to VDR than 1,25(OH)2 D3” value is recorded as “about 1300 times”. In addition, inhibition in the series with U 937 cancer cells [6] was half-maximal at 60 nM (IC50). Also, the “inhibiting cell proliferation (in words)” value with U 937 cancer cells [6] is reported as “about one third as active”. Further, the “inhibition of growth (suppression of thymidine incorporation)” value in series [7] is recorded as “very comparable to calcitriol”.

Turning to `C=C1/C(=C\C=C2/CCC[C@]3(C)[C@@H]([C@@H](C)OCCCC(O)(CC)CC)CC[C@@H]23)C[C@@H](O)C[C@@H]1CO` [YA, 22-oxa-1-(hydroxymethyl)-26-(hydroxydiethyl) vitamin D3], the “effect on keratinocyte proliferation” value in the series on keratinocyte is listed as “not effective for inhibition of proliferation”. The “solubility in organic solvents” value in series [2] is “sparingly soluble”. Also, the “inhibition of growth (suppression of thymidine incorporation)” value with MDA 468 cells is “appears to have no effect”. In the series with U 937 cancer cells [3] (setting [14]), the viability at 0.1 µM is 99%. In addition, the “Average peak shift compared to control” value was determined as 1.0 ± 0.1 mV with calcium channels (0.05 nM), 10.8 ± 1.5 mV with calcium channels (0.5 nM), 16.1 ± 4.1 mV with calcium channels (5 nM) and 18.6 ± 3.3 mV in the series on calcium channels (50 nM). For the same compound, the “inducing cell differentiation (in words)” value in the series with U 937 cancer cells [4] (at 10^-7 M) is “inactive”. Moreover, the differentiation inducing activity entry in the series with cell differentiation is listed as “relatively ineffective in inducing differentiation”. Moreover, the “VDR binding (in words)” value on calf thymus VDR is “even weaker binding for VDR than YB; also recorded: low VDR binding”. At calf thymus VDR, the “Amount Bound (amount that results in 50% displacement of [^3 H]-1,25(OH)2 D3 from VDR)” value turned out to be 2200 ng. The half-inhibitory concentration (IC50) in the series on U 937 cancer cells [6] is above 100 nM. Moreover, in the series on U 937 cancer cells [6], the “inhibiting cell proliferation (in words)” value was “ineffective”. Also, in the series on cell proliferation [8], the anti-proliferative activity result is recorded as “relatively ineffective in inducing differentiation or inhibiting proliferation”.

Consider `C=C1/C(=C\C=C2/CCC[C@]3(C)[C@@H]([C@H](C)CCCC(C)(C)O)CC[C@@H]23)C[C@@H](O)C[C@@H]1O` [Calcitriol, 1α,25-dihydroxyvitamin D3, reference compound], for which the viability at 0.1 µM in the series with U 937 cancer cells [3] is 99%. The “inducing cell differentiation (in words)” value in the series on U 937 cancer cells [4] (at a concentration of 10^-8 M) is given as “effective in inducing cell differentiation”. Also, the “inhibition of TPA effects on ODC induction as well as TPA-stimulated tumor promotion” value in [9] is “shown to inhibit TPA effects on ODC induction”. For the same compound, the entries for the “inhibition of TPA-induced ODC activity” value in series [10] and in [10] (listed as calcitriol) were “significantly inhibited the effects of TPA” and “statistically significant reduction in TPA-induced ODC activity”, respectively. In addition, the “growth inhibition of PE cells, comparison of potency” value in series [11] is reported as “equipotent at inhibiting growth of PE cells”.

On to `C=C1/C(=C\C=C2/CCC[C@]3(C)[C@@H]([C@@H](C)OCCCC(O)(CC)CC)CC[C@@H]23)C[C@@H](O)C[C@@H]1O` [KH-1060], for which the “Relative Potency, Induction of Differentiation” value in [12] was 100,000. In addition, in series [13], the “Relative Potency, Inhibition of Proliferation” value was 31,000. In the series on HL-60 cells, the “times as effective as 1,25D3 in the induction of leukemic cell (HL-60) differentiation” value was 133 times. Moreover, in the series with Lewis rats, the “Relative Potency, Calcemic Effects” value is 1.3.
